Data reported in PubChem BioAssay AID1259407 (Chemical Carcinogenesis Research Information System (CCRIS), 2018).
Calls of active or inactive are those of the source. The rule behind the calls is not given here.

Test system: CCRIS mutagenicity, Ames/micronucleus/aberration tests
Test: CCRIS mutagenicity studies
[1] = Test System: AMES SALMONELLA TYPHIMURIUM, Strain/Indicator: TA98, Metabolic Activation: NONE, Method: PREINCUBATION
[2] = Test System: AMES SALMONELLA TYPHIMURIUM, Strain/Indicator: TA100, Metabolic Activation: NONE, Method: PREINCUBATION

CCn1cc(C(=O)O)c(=O)c2ccc(C)nc21
mutagenic call (End Point: In vitro micronucleus, Test System: WTK-1 human lymphoma cells, Metabolic Activation: None): inactive; negative | mutagenic call (Test System: AMES SALMONELLA TYPHIMURIUM, Strain/Indicator: TA97, Metabolic Activation: HAMSTER, LIVER, S-9, AROCLOR 1254 (10% OR 30%), Method: PREINCUBATION): inactive; negative | mutagenic call (Test System: AMES SALMONELLA TYPHIMURIUM, Strain/Indicator: TA97, Metabolic Activation: HAMSTER, LIVER, S-9, AROCLOR 1254 (10 OR 30%), Method: PREINCUBATION): inactive; negative | mutagenic call (Test System: AMES SALMONELLA TYPHIMURIUM, Strain/Indicator: TA97, Metabolic Activation: NONE, Method: PREINCUBATION): inactive; negative | mutagenic call (Test System: AMES SALMONELLA TYPHIMURIUM, Strain/Indicator: TA97, Metabolic Activation: RAT, LIVER, S-9, AROCLOR 1254 (10% OR 30%), Method: PREINCUBATION): inactive; negative | mutagenic call (Test System: AMES SALMONELLA TYPHIMURIUM, Strain/Indicator: TA97, Metabolic Activation: RAT, LIVER, S-9, AROCLOR 1254 (10 OR 30%), Method: PREINCUBATION): inactive; negative | mutagenic call (Test System: AMES SALMONELLA TYPHIMURIUM, Strain/Indicator: TA98, Metabolic Activation: HAMSTER, LIVER, S-9, AROCLOR 1254 (10% OR 30%), Method: PREINCUBATION): inactive; negative | mutagenic call (Test System: AMES SALMONELLA TYPHIMURIUM, Strain/Indicator: TA98, Metabolic Activation: HAMSTER, LIVER, S-9, AROCLOR 1254 (10 OR 30%), Method: PREINCUBATION): inactive; negative | mutagenic call [1]: inactive; negative | mutagenic call (Test System: AMES SALMONELLA TYPHIMURIUM, Strain/Indicator: TA98, Metabolic Activation: RAT, LIVER, S-9, AROCLOR 1254 (10% OR 30%), Method: PREINCUBATION): inactive; negative | mutagenic call (Test System: AMES SALMONELLA TYPHIMURIUM, Strain/Indicator: TA98, Metabolic Activation: RAT, LIVER, S-9, AROCLOR 1254 (10 OR 30%), Method: PREINCUBATION): inactive; negative | mutagenic call (Test System: AMES SALMONELLA TYPHIMURIUM, Strain/Indicator: TA100, Metabolic Activation: HAMSTER, LIVER, S-9, AROCLOR 1254 (10%), Method: PREINCUBATION): inactive; negative | mutagenic call (Test System: AMES SALMONELLA TYPHIMURIUM, Strain/Indicator: TA100, Metabolic Activation: HAMSTER, LIVER, S-9, AROCLOR 1254 (30%), Method: PREINCUBATION): inactive; negative | mutagenic call [2]: inactive; negative | mutagenic call (Test System: AMES SALMONELLA TYPHIMURIUM, Strain/Indicator: TA100, Metabolic Activation: RAT, LIVER, S-9, AROCLOR 1254 (10% OR 30%), Method: PREINCUBATION): inactive; negative | mutagenic call (Test System: AMES SALMONELLA TYPHIMURIUM, Strain/Indicator: TA100, Metabolic Activation: RAT, LIVER, S-9, AROCLOR 1254 (10 OR 30%), Method: PREINCUBATION): inactive; negative | mutagenic call (Test System: AMES SALMONELLA TYPHIMURIUM, Strain/Indicator: TA102, Metabolic Activation: NONE, Method: STANDARD PLATE): active; positive | mutagenic call (Test System: AMES SALMONELLA TYPHIMURIUM, Strain/Indicator: TA1535, Metabolic Activation: HAMSTER, LIVER, S-9, AROCLOR 1254 (10% OR 30%), Method: PREINCUBATION): inactive; negative | mutagenic call (Test System: AMES SALMONELLA TYPHIMURIUM, Strain/Indicator: TA1535, Metabolic Activation: HAMSTER, LIVER, S-9, AROCLOR 1254 (10 OR 30%), Method: PREINCUBATION): inactive; negative | mutagenic call (Test System: AMES SALMONELLA TYPHIMURIUM, Strain/Indicator: TA1535, Metabolic Activation: NONE, Method: PREINCUBATION): inactive; negative | mutagenic call (Test System: AMES SALMONELLA TYPHIMURIUM, Strain/Indicator: TA1535, Metabolic Activation: RAT, LIVER, S-9, AROCLOR 1254 (10% OR 30%), Method: PREINCUBATION): inactive; negative | mutagenic call (Test System: AMES SALMONELLA TYPHIMURIUM, Strain/Indicator: TA1535, Metabolic Activation: RAT, LIVER, S-9, AROCLOR 1254 (10 OR 30%), Method: PREINCUBATION): inactive; negative | mutagenic call (Test System: AMES SALMONELLA TYPHIMURIUM, Strain/Indicator: TA2638, Metabolic Activation: NONE, Method: STANDARD PLATE): inactive; negative | mutagenic call (Test System: CHINESE HAMSTER V-79, Strain/Indicator: V-79 (HPRT)/6-THIOGUANINE, Metabolic Activation: NONE): inactive; negative | mutagenic call (Test System: E. COLI, Strain/Indicator: WP2 (PKM101), Metabolic Activation: NONE, Method: STANDARD PLATE): active; positive | mutagenic call (Test System: E. COLI, Strain/Indicator: WP2 UVRA (PKM101), Metabolic Activation: NONE, Method: STANDARD PLATE): active; positive | mutagenic call (Test System: MOUSE LYMPHOMA, Strain/Indicator: L5178Y (HPRT)/6-THIOGUANINE, Metabolic Activation: NONE, Method: FLUCTUATION TEST): inactive; negative | mutagenic call (Test System: MOUSE LYMPHOMA, Strain/Indicator: L5178Y (TK+/TK-), Metabolic Activation: NONE, Method: FLUCTUATION TEST): inactive; negative | mutagenic call (Test System: MOUSE LYMPHOMA, Strain/Indicator: L5178Y (TK+/TK-), Metabolic Activation: NONE, Method: SUSPENSION/PLATE): inactive; negative | mutagenic call (Test System: MOUSE LYMPHOMA, Strain/Indicator: L5178Y (TK+/TK-), Metabolic Activation: RAT, LIVER, S-9, AROCLOR 1254, Method: SUSPENSION/PLATE): inactive; negative

Nc1ccc2cccnc2c1
mutagenic call [1]: inactive; negative | mutagenic call (Test System: AMES SALMONELLA TYPHIMURIUM, Strain/Indicator: TA98, Metabolic Activation: RAT, LIVER, S-9, KANECHLOR 500 OR PHENOBARBITAL AND BETA-NAPHTHOFLAVONE, Method: PREINCUBATION): active; positive | mutagenic call [2]: active; positive | mutagenic call (Test System: AMES SALMONELLA TYPHIMURIUM, Strain/Indicator: TA100, Metabolic Activation: RAT, LIVER, S-9, KANECHLOR 500 OR PHENOBARBITAL AND BETA-NAPHTHOFLAVONE, Method: PREINCUBATION): active; positive

CCCCCCCCCC(=O)OCCN1CCN(CCCN2c3ccccc3Sc3ccc(C(F)(F)F)cc32)CC1
mutagenic call (Test System: AMES SALMONELLA TYPHIMURIUM, Strain/Indicator: TA98, Metabolic Activation: NONE): inactive; negative | mutagenic call (Test System: AMES SALMONELLA TYPHIMURIUM, Strain/Indicator: TA98, Metabolic Activation: RAT, LIVER, S-9, PHENOBARBITAL AND 5,6-BENZOFLAVONE): inactive; negative | mutagenic call [2]: inactive; negative | mutagenic call (Test System: AMES SALMONELLA TYPHIMURIUM, Strain/Indicator: TA100, Metabolic Activation: RAT, LIVER, S-9, PHENOBARBITAL AND 5,6-BENZOFLAVONE): inactive; negative | mutagenic call (Test System: AMES SALMONELLA TYPHIMURIUM, Strain/Indicator: TA1535, Metabolic Activation: NONE): inactive; negative | mutagenic call (Test System: AMES SALMONELLA TYPHIMURIUM, Strain/Indicator: TA1535, Metabolic Activation: RAT, LIVER, S-9, PHENOBARBITAL AND 5,6-BENZOFLAVONE): inactive; negative | mutagenic call (Test System: AMES SALMONELLA TYPHIMURIUM, Strain/Indicator: TA1537, Metabolic Activation: NONE): inactive; negative | mutagenic call (Test System: AMES SALMONELLA TYPHIMURIUM, Strain/Indicator: TA1537, Metabolic Activation: RAT, LIVER, S-9, PHENOBARBITAL AND 5,6-BENZOFLAVONE): inactive; negative | mutagenic call (Test System: E. COLI, Strain/Indicator: WP2 UVRA, Metabolic Activation: NONE): inactive; negative | mutagenic call (Test System: E. COLI, Strain/Indicator: WP2 UVRA, Metabolic Activation: RAT, LIVER, S-9, PHENOBARBITAL AND 5,6-BENZOFLAVONE): inactive; negative

CN(N=O)C(=O)Nc1ccc(F)cc1
mutagenic call (End Point: IN VITRO CHROMOSOMAL ABERRATIONS, Test System: CHINESE HAMSTER V79-E CELLS, Metabolic Activation: NONE): active; weakly positive
